Patent US7897582B2, “Oligonucleotide compositions and methods for the modulation of the expression of B7 protein” (Isis Pharmaceuticals, Inc., priority 2003, dated 2011)
Strand notation (5' to 3'): a small letter for the sugar, then the base; units joined by * are phosphorothioate-linked, units joined directly phosphodiester-linked; [ ] holds rarer units or linkages, { } end groups; capitals alone tell only the bases. e = 2'-O-(2-methoxyethyl) (MOE); [5mC] = 5-methylcytosine; d = 2'-deoxy (DNA)

Experiments:
Assay type in all cases: cell-based
Mouse B7-2 mRNA = Mouse B7-2 mRNA expression, screened as in Example 4; parameters: % mRNA INHIBITION: concentration or dose not given beside the values; conditions: for % mRNA INHIBITION: screened as in Example 4; for % mRNA EXPRESSION: screened as in Example 4, basal = 100.0%
Procedure: For ribonuclease protection assays, cells were harvested 18 hours after completion of oligonucleotide treatment using a Totally RNA™ kit (Ambion, Austin, Tex.). The probes for the assay were generated from plasmids pcB7-2 (linearized by digestion with Bgl II) and pTRI-b-actin (Ambion Inc., Austin, Tex.). In vitro transcription of the linearized plasmid from the SP6 promoter was performed in the presence of α-^32P-UTP (800 Ci/mmole) yielding an antisense RNA complementary to the 3′ end of B7-2 (position 1044-1391). The probe was gel-purified after treatment with DNase I to remove DNA template. Ribonuclease protection assays were carried out using an RPA II™ kit (Ambion) according to the manufacturer's directions. Total RNA (5 μg) was hybridized overnight, at 42° C., with 10^5 cpm of the B7-2 probe or a control beta-actin probe. The hybridization reaction was then treated, at 37° C. for 30 minutes, with 0.4 units of RNase A and 2 units of RNase T1. Protected RNA was precipitated, resuspended in 10 μL of gel loading buffer and electrophoresed on a 6% acrylamide gel with 50% w/v urea at 20 W. The gel was then exposed and the lanes quantitated using a PhosphorImager (Molecular Dynamics, Sunnyvale, Calif.) essentially according to the manufacturer's instructions.
Oligonucleotides were screened as described in Example 4.

Human B7-1 mRNA = Human B7-1 mRNA expression in COS-7 cells, screened as in Example 4
human B7-1 = test: Cell surface expression of B7-1 in pcB7-1-transfected COS-7 cells by flow cytometry; conditions: for % Surface Inhibition / % Surface Expression: COS-7 cells, B7-1 cell surface; for % Surface Expression: basal = 100%
Procedure: The ability of oligonucleotides to inhibit B7-1 expression was evaluated by measuring the cell surface expression of B7-1 in transfected COS-7 cells by flow cytometry.
A T-175 flask was seeded at 75% confluency with COS-7 cells (ATCC accession No. CRL 1651). The plasmid pcB7-1 was introduced into cells by standard calcium phosphate transfection. Following a 4 hour transfection, the cells were trypsinized and seeded in 12-well dishes at 80% confluency. The cells were allowed to adhere to the plastic for 1 hour and were then washed with phosphate-buffered saline (PBS). OptiMEM™ (GIBCO-BRL, Gaithersburg, Md.) medium was added along with 15 μg/mL of Lipofectin™ (GIBCO-BRL, Gaithersburg, Md.) and oligonucleotide at the indicated concentrations. After four additional hours, the cells were washed with phosphate buffered saline (PBS) and incubated with fresh oligonucleotide at the same concentration in DMEM (Dulbecco et al., Virol., 1959, 8, 396; Smith et al., Virol., 1960, 12, 185) with 10% fetal calf sera (FCS).
In order to monitor the effects of oligonucleotides on cell surface expression of B7-1, treated COS-7 cells were harvested by brief trypsinization 24-48 hours after oligonucleotide treatment. The cells were washed with PBS, then resuspended in 100 μL of staining buffer (PBS, 0.2% BSA, 0.1% azide) with 5 μL conjugated anti-B7-1-antibody (i.e., anti-hCD80-FITC, Ancell, Bayport, Minn.; FITC: fluorescein isothiocyanate). The cells were stained for 30 minutes at 4° C., washed with PBS, resuspended in 300 μL containing 0.5% paraformaldehyde. Cells were harvested and the fluorescence profiles were determined using a flow cytometer.
B7 antisense oligonucleotides were tested for their effect on cell surface expression of both B7-1 and B7-2. Cell surface expression was measured as described in Example 1. Experiments were done for both human B7 and mouse B7.
The oligonucleotides were screened as described in Example 2 except that the concentration of oligonucleotide was varied as shown in Table 18.

human B7-2 = test: Cell surface expression of B7-2 in transfected COS-7 cells by flow cytometry; conditions: human B7 cell surface expression; Table 16
Method in brief: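 COS-7 cells transfected with B7-2 plasmid (calcium phosphate), then treated with antisense oligonucleotides with 15 μg/mL Lipofectin for 4 h, followed by oligonucleotide in DMEM/10% FCS. After 24-48 h, cells stained with FITC- or PE-conjugated anti-CD86 for 30 min at 4 °C and analysed by flow cytometry.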

| Substance | % mRNA INHIBITION (Mouse B7-2 mRNA) [%] | % mRNA EXPRESSION (Mouse B7-2 mRNA) [%] | other results |
| --- | --- | --- | --- |
| 18084 (antisense eG*e[5mC]*eT*eG*e[5mC]*d[5mC]*dT*dA*d[5mC]*dA*dG*dG*dA*dG*d[5mC]*e[5mC]*eA*e[5mC]*eT*e[5mC]) [compound 18084] | 63.6 | 36.4 | – |
| 18085 (antisense eT*e[5mC]*eA*eA*eG*dT*d[5mC]*d[5mC]*dG*dT*dG*d[5mC]*dT*dG*d[5mC]*e[5mC]*eT*eA*e[5mC]*eA) [compound 18085] | 65.0 | 35.0 | – |
| 18086 (antisense eG*eT*e[5mC]*eT*eA*d[5mC]*dA*dG*dG*dA*dG*dT*d[5mC]*dT*dG*eG*eT*eT*eG*eT) [compound 18086] | 59.9 | 40.1 | – |
| 18087 (antisense eA*eG*e[5mC]*eT*eT*dG*d[5mC]*dG*dT*d[5mC]*dT*d[5mC]*d[5mC]*dA*d[5mC]*eG*eG*eA*eA*eA) [compound 18087] | 57.9 | 42.1 | – |
| 18088 (antisense eT*e[5mC]*eA*e[5mC]*eA*d[5mC]*dT*dA*dT*d[5mC]*dA*dA*dG*dT*dT*eT*e[5mC]*eT*e[5mC]*eT) [compound 18088] | 47.7 | 52.3 | – |
| 18090 (antisense eG*eT*eG*eA*eA*dG*dT*d[5mC]*dG*dT*dA*dG*dA*dG*dT*e[5mC]*e[5mC]*eA*eG*eT) [compound 18090] | 63.4 | 36.6 | – |
| 18091 (antisense eG*eT*eG*eA*e[5mC]*d[5mC]*dT*dT*dG*d[5mC]*dT*dT*dA*dG*dA*e[5mC]*eG*eT*eG*e[5mC]) [compound 18091] | 62.9 | 37.1 | – |
| 18092 (antisense e[5mC]*eA*eT*e[5mC]*eT*dT*d[5mC]*dT*dT*dA*dG*dG*dT*dT*dT*e[5mC]*eG*eG*eG*eT) [compound 18092] | 41.1 | 58.9 | – |
| 18093 (antisense eG*eG*e[5mC]*eT*eG*dT*dT*dG*dG*dA*dG*dA*dT*dA*d[5mC]*eT*eG*eA*eA*e[5mC]) [compound 18093] | 67.3 | 32.7 | – |
| 18094 (antisense eG*eG*eG*eA*eA*dT*dG*dA*dA*dA*dG*dA*dG*dA*dG*eA*eG*eG*e[5mC]*eT) [compound 18094] | 36.2 | 63.8 | – |
| 18095 (antisense eA*e[5mC]*eA*eT*eA*d[5mC]*dA*dA*dT*dG*dA*dT*dG*dA*dG*e[5mC]*eA*eG*e[5mC]*eA) [compound 18095] | 65.7 | 34.3 | – |
| 18096 (antisense eG*eT*e[5mC]*eT*e[5mC]*dT*d[5mC]*dT*dG*dT*d[5mC]*dA*dG*d[5mC]*dG*eT*eT*eA*e[5mC]*eT) [compound 18096] | 67.7 | 32.3 | – |
| 18098 (antisense eG*eG*eA*eT*eT*dG*d[5mC]*d[5mC]*dA*dA*dG*d[5mC]*d[5mC]*d[5mC]*dA*eT*eG*eG*eT*eG) [compound 18098] | 67.8 | 32.2 | – |
| 22338 (antisense eG*e[5mC]*e[5mC]*eT*e[5mC]*dA*dT*dG*dA*dT*d[5mC]*d[5mC]*d[5mC]*d[5mC]*dA*e[5mC]*eG*eA*eT*e[5mC]) [compound 22338] | – | – | % mRNA EXPRESSION (Human B7-1 mRNA; 10 nM, COS-7, Table 8): 68%; % mRNA INHIBITION (Human B7-1 mRNA; 10 nM, COS-7, Table 8): 32%; % mRNA EXPRESSION (Human B7-1 mRNA; 30 nM, COS-7, Table 8): 60%; % mRNA INHIBITION (Human B7-1 mRNA; 30 nM, COS-7, Table 8): 40%; % mRNA EXPRESSION (Human B7-1 mRNA; 100 nM, COS-7, Table 8): 53%; % mRNA INHIBITION (Human B7-1 mRNA; 100 nM, COS-7, Table 8): 47%; % mRNA EXPRESSION (Human B7-1 mRNA; 300 nM, COS-7, Table 8): 41%; % mRNA INHIBITION (Human B7-1 mRNA; 300 nM, COS-7, Table 8): 59%; % mRNA EXPRESSION (Human B7-1 mRNA; human B7-1 mRNA, Table 7): 40%; % Surface Inhibition (human B7-1; dose 10 nM): 22%; % Surface Expression (human B7-1; dose 10 nM): 78%; % Surface Inhibition (human B7-1; dose 30 nM): 35%; % Surface Expression (human B7-1; dose 30 nM): 65%; % Surface Inhibition (human B7-1; dose 100 nM): 50%; % Surface Expression (human B7-1; dose 100 nM): 50%; % Surface Inhibition (human B7-1; dose 300 nM): 60%; % Surface Expression (human B7-1; dose 300 nM): 40%; % B7-1 EXPRESSION (human B7-1; human B7 cell surface expression, Table 16): 22%; % B7-2 EXPRESSION (human B7-2): 96% |
